One may read the Ki as a measure of affinity in units of concentration, obtained from inhibition or displacement. For orientation: EC50 means the concentration at which the effect is half-maximal. A low value points to greater potency.

The structures appear in SMILES notation.

Consider 4 compounds from paper PMC6726392 (ACS chemical neuroscience, 2019).

For experiment [1], the target named is T1, kappa opioid receptor (KOR); human KOR (Homo sapiens, UniProt P41145). The experiment in a line: [3H]diprenorphine competitive displacement, membranes. In kind it is binding.
In experiment [2] the target is delta opioid receptor (DOR); rat DOR (Rattus norvegicus, UniProt P33533). The experiment is described as above. In kind it is binding.
Experiment [3] deals with mu opioid receptor (MOR); rat MOR (Rattus norvegicus, UniProt P33535). Described as above. The format is binding.
In experiment [4] the target is T1, kappa opioid receptor (KOR); human KOR. Kind of experiment: […]GTPγS binding stimulation, membranes. In kind it is biochemical. Background: GTPγS is a poorly hydrolysed GTP analogue; its binding reports G protein activation.

For `Cc1cc(O)cc(C)c1C[C@H](N)C(=O)N1CCc2c(Cc3ccccc3)cccc2C1` [4a, 5-Bn Dmt-Tiq analogue 4a], the values for the inhibition constant Ki in experiment [1], in experiment [2] and in experiment [3] were 112 nM, 3.3 nM and 17 nM, respectively.
Consider `Cc1cc(O)cc(C)c1C[C@H](N)C(=O)N1CCc2cc(Cc3ccccc3)ccc2C1` [4b, 6-Bn Dmt-Tiq analogue 4b], for which the Ki was 38 nM in experiment [1], 4.3 nM in experiment [2] and 9.9 nM in experiment [3].
In the case of `Cc1cc(O)cc(C)c1C[C@H](N)C(=O)N1CCc2ccc(Cc3ccccc3)cc2C1` [4c, 7-Bn Dmt-Tiq analogue 4c], the inhibition constant (Ki) in experiment [1] came to 3.9 nM; in experiment [2], 6.1 nM; in experiment [3], 2.7 nM. In addition, the 50% effective concentration (EC50) in experiment [4] amounted to 33 nM.
On the same counts, the results for `Cc1cc(O)cc(C)c1C[C@H](N)C(=O)N1CCc2cccc(Cc3ccccc3)c2C1` [4d, 8-Bn Dmt-Tiq analogue 4d] are 26 nM, 185 nM, 4.1 nM and 319 nM.
